Key:
[1] = tested on: fluorescence of chlorophyll; experiment: Fluorescence of chlorophyll of treated Crofton weed leaves; format: biochemical; conditions: 50 μg/mL, strong light 12 hours
Method: (§1) Compounds 10-57 were dissolved in small amount of methanol. The solutions were then diluted with distilled water to a concentration of 50 μg/mL. A mixture of methanol and water in the same ratio as the sample solution was also prepared and used as control in the experiment. The healthy leaves of Crofton weed were washed in water for 30 minutes and then rinsed with distilled water. The clean and tissue dried leaves were placed in petri dish with the back-side of the leaves facing up. Wet filter paper was also placed in the in petri dish for moisture control. Water, methanol and chemical solutions of the analogues were applied to the back-side of each leaf. Test sample was then placed in vacuum chamber at 25° C. for 15 min followed by exposure to the strong light (400 μM m^−2 s^−1) for 12 hours. The leaf sample went through a series of test, and the Hill reaction rate, the electron transfer activity and fluorescence of chlorophyll were measured. Four leaves were used for each treatment and each test was repeated three times.

[2] = tested on: Hill reaction; experiment: Hill reaction activity of treated Crofton weed leaves; format: biochemical; conditions: 50 μg/mL, strong light 12 hours
Method: as §1

[3] = tested on: Crofton weed; experiment: Needle puncture pathogenic test on slightly wounded leaf of Crofton weed; format: in vivo; conditions: for Avg. diameter of the spot after 24 h / Time of disease spot to occur / Time of Disease spot / Average diameter of spot after 24 h: Crofton weed leaf; for Avg. diameter of the spot after 24 h / Time of disease spot to occur: analogs with formula (I) and (II); for Time of Disease spot / Average diameter of spot after 24 h / Time / Average diameter of the damage spot after 24 h: 50 μg/mL, 25° C., natural light; for Time / Average diameter of the damage spot after 24 h: salts, Crofton weed
Method: 3-acetyl-5-sec-butyl-4-hydroxy-3-pyrrolin-2-one analogs were dissolved in a small amount of methanol and diluted with water to a concentration of 5-100 μg/g. A pathogenic test was conducted by placing the toxic liquid on the slightly wounded leaf of Crofton weed with a needle. The test has shown that the pathogenic capability of 3-acetyl-5-sec-butyl-4-hydroxy-3-pyrrolin-2-one analogs with respect to Crofton weed increases with the increase of concentration. The spot diameter caused on the leaf of Crofton weed after 24 hours was 2 mm at 50 μg/g.
3-acetyl-5-sec-butyl-4-hydroxy-3-pyrrolin-2-one analogue (Table 3, compounds 10-57) was dissolved in small amount of methanol. The solution was then diluted with distilled water to a concentration of 50 μg/mL. Methanol solution with same concentration and pure distilled water were used as control of the experiment. A pathogenic test was conducted by placing the toxic liquid on the slightly wounded leaf of Crofton weed with a needle. The experiment was carried out at 25° C. under the natural light and each test was repeated 6 times. It was measure the diameter of the spot after 24 h. […] The size of the side chain also has an effect on their activity.
Fourteen salts of 3-acetyl-5-sec-butyl-4-hydroxy-3-pyrrolin-2-one analogs were dissolved in small amount of methanol and diluted with distilled water to a concentration of 50 μg/mL. Methanol/water mixture was also prepared and used as control. Needle puncture method was used for the test on the small pieces of Crofton weed. Each treatment was repeated six times or more. The test samples were kept under natural light at 25° C. for 24 hours. The diameters of damaged spot of the plant leaves were measured by vernier caliper.

[4] = tested on: photosystem II; experiment: PSII oxygen evolution / electron transfer activity of treated Crofton weed leaves; format: biochemical; conditions: 50 μg/mL, strong light 12 hours
Method: as §1

Compound	Time of Disease spot [3]	Average diameter of spot after 24 h [3]	Time [3]	Average diameter of the damage spot after 24 h [3]	further results
CCC1=C(O)C(C(C)CC)NC1=O (stereo not drawn) [Compound 4]	–	–	–	–	Fv/Fm [1]: 0.83; Activity of Hill Reaction [2]: 51.13 uMO2/mgChlh; Avg. diameter of the spot after 24 h [3]: 2.97 ± 0.01 mm; Time of disease spot to occur [3]: 18.5 ± 1.55 h; PSII Activity of oxygen evolution [4]: 28.01 uMO2/mgChlh
CCOC1=C(O)C(C(C)CC)NC1=O (stereo not drawn) [Compound 5]	–	–	–	–	Fv/Fm [1]: 0.82; Activity of Hill Reaction [2]: 52.31 uMO2/mgChlh; Avg. diameter of the spot after 24 h [3]: 2.35 ± 0.14 mm; Time of disease spot to occur [3]: 20.7 ± 0.75 h; PSII Activity of oxygen evolution [4]: 24.10 uMO2/mgChlh
CCC(C)C1NC(=O)C(CCc2ccccc2)=C1O (stereo not drawn) [Compound 6]	–	–	–	–	Fv/Fm [1]: 0.81; Activity of Hill Reaction [2]: 50.04 uMO2/mgChlh; Avg. diameter of the spot after 24 h [3]: 2.12 ± 0.08 mm; Time of disease spot to occur [3]: 21.2 ± 3.85 h; PSII Activity of oxygen evolution [4]: 27.11 uMO2/mgChlh
CCC(C)C1NC(=O)C(NCCCCl)=C1O (stereo not drawn) [Compound 8]	–	–	–	–	Fv/Fm [1]: 0.79; Activity of Hill Reaction [2]: 49.05 uMO2/mgChlh; Avg. diameter of the spot after 24 h [3]: 2.53 ± 0.18 mm; Time of disease spot to occur [3]: 20.0 ± 1.51 h; PSII Activity of oxygen evolution [4]: 24.65 uMO2/mgChlh
CCC(=O)NC1=C(O)C(C(C)CC)NC1=O (stereo not drawn) [Compound 9]	–	–	–	–	Fv/Fm [1]: 0.83; Activity of Hill Reaction [2]: 50.12 uMO2/mgChlh; Avg. diameter of the spot after 24 h [3]: 2.80 ± 0.33 mm; Time of disease spot to occur [3]: 21.9 ± 2.00 h; PSII Activity of oxygen evolution [4]: 23.33 uMO2/mgChlh
CC(=O)C1=C(O)CNC1=O [Compound 10]	29 ± 6.30 h	1.11 ± 0.16 mm	–	–	Fv/Fm [1]: 0.79; Activity of Hill Reaction [2]: 84.32 uMO2/mgChlh; PSII Activity of oxygen evolution [4]: 47.55 uMO2/mgChlh
CC(=O)C1=C(O)C(C)NC1=O (stereo not drawn) [Compound 11]	21.5 ± 0 h	1.80 ± 0.41 mm	–	–	Fv/Fm [1]: 0.82; Activity of Hill Reaction [2]: 80.00 uMO2/mgChlh; PSII Activity of oxygen evolution [4]: 46.41 uMO2/mgChlh
CCC1NC(=O)C(C(C)=O)=C1O (stereo not drawn) [Compound 12]	15.2 ± 0.35 h	2.77 ± 0.23 mm	–	–	Fv/Fm [1]: 0.83; Activity of Hill Reaction [2]: 70.32 uMO2/mgChlh; PSII Activity of oxygen evolution [4]: 34.54 uMO2/mgChlh
CCCCC1(C)NC(=O)C(C(C)=O)=C1O (stereo not drawn) [Compound 29]	12.1 ± 3.75 h	5.77 ± 1.15 mm	–	–	–
CCCC(C)C1NC(=O)C(C(C)=O)=C1O (stereo not drawn) [Compound 31]	10.8 ± 2.00 h	5.93 ± 1.35 mm	–	–	–
CC(=O)C1=C(O)C(CCC(=O)O)NC1=O (stereo not drawn) [Compound 35]	26.4 ± 0.12 h	1.27 ± 0.02 mm	–	–	–
CC(=O)C1=C(O)C(CC(N)=O)NC1=O (stereo not drawn) [Compound 36]	21.9 ± 0.23 h	1.54 ± 0.07 mm	–	–	–
CC(=O)C1=C(O)C(CCC(N)=O)NC1=O (stereo not drawn) [Compound 37]	24 ± 0.08 h	1.64 ± 0.25 mm	–	–	–
CCC(=O)C1=C(O)C(C(C)CC)NC1=O (stereo not drawn) [Compound 42]	19.4 ± 2.50 h	2.24 ± 0.45 mm	–	–	–
CCC(C)C1NC(=O)C(C(=O)NCc2ccccc2)=C1O (stereo not drawn) [Compound 49]	23.2 ± 2.86 h	2.47 ± 0.08 mm	–	–	–
CCC1NC(=O)C(C(C)=O)=C1O.[K] (stereo not drawn) [f, Potassium salt of 3-acetyl-5-ethyl-4-hydroxy-1H-pyrrol-2(5H)-one]	–	–	14.2 ± 2.00 h	3.72 ± 0.28 mm	–
CCCC(C)C1NC(=O)C(C(C)=O)=C1[O-].[Na+] (stereo not drawn) [m, Sodium salt of 3-acetyl-4-hydroxy-5-(Pentan-2-yl)-1H-pyrrol-2(5H)-one]	–	–	8.5 ± 2.00 h	8.27 ± 1.72 mm	–
Ammonium salt of 3-acetyl-5-ethyl-4-hydroxy-1H-pyrrol-2(5H)-one	–	–	10.3 ± 1.50 h	4.97 ± 1.01 mm	–
Calcium salt of 3-acetyl-5-ethyl-4-hydroxy-1H-pyrrol-2(5H)-one [g]	–	–	18.7 ± 3.00 h	2.29 ± 0.19 mm	–
Copper salt of 3-acetyl-5-ethyl-4-hydroxy-1H-pyrrol-2(5H)-one	–	–	21.6 ± 3.05 h	1.22 ± 0.25 mm	–
Iron salt of 3-acetyl-5-ethyl-4-hydroxy-1H-pyrrol-2(5H)-one [k]	–	–	17.2 ± 0.95 h	1.72 ± 0.15 mm	–
Magnesium (II) salt of 3-acetyl-5-ethyl-4-hydroxy-1H-pyrrol-2(5H)-one	–	–	17.5 ± 1.50 h	2.88 ± 0.10 mm	–
Manganese salt of 3-acetyl-5-ethyl-4-hydroxy-1H-pyrrol-2(5H)-one [i]	–	–	14.3 ± 3.15 h	3.24 ± 0.33 mm	–
Sodium salt of 3-acetyl-4-hydroxy-1H-pyrrol-2(5H)-one	–	–	26 ± 7.30 h	1.34 ± 0.08 mm	–
Sodium salt of 3-acetyl-4-hydroxy-5-(prop-1-enyl)-1H-pyrrol-2(5H)-one	–	–	16.8 ± 1.85 h	2.42 ± 0.05 mm	–
Sodium salt of 3-acetyl-4-hydroxy-5-methyl-1H-pyrrol-2(5H)-one [b]	–	–	19.5 ± 0.5 h	2.21 ± 0.18 mm	–
Sodium salt of 3-acetyl-4-hydroxy-5-propyl-1H-pyrrol-2(5H)-one	–	–	10.2 ± 2.50 h	5.07 ± 0.11 mm	–
Sodium salt of 3-acetyl-5-ethyl-4-hydroxy-1H-pyrrol-2(5H)-one	–	–	14.5 ± 1.8 h	3.11 ± 0.54 mm	–
Zinc salt of 3-acetyl-4-hydroxy-5,5-dimethyl-1H-pyrrol-2(5H)-one	–	–	18.2 ± 2.50 h	2.63 ± 0.06 mm	–
Zinc salt of 3-acetyl-5-ethyl-4-hydroxy-1H-pyrrol-2(5H)-one [j]	–	–	15.1 ± 4.00 h	2.91 ± 0.02 mm	–

From patent US9468209B2, “Method for eradicating weeds with derivatives of 3-acetyl-5-sec-butyl-4-hydroxy-3-pyrrolin-2-one” (priority 2012, dated 2016)
